Measurements taken from BindingDB's records for PubMed 34154424 (Bayer AG).

Assays:
[1] = target: Tyrosine-protein kinase Fyn (Homo sapiens) (UniProt P06241); experiment: Inhibition of T-Fyn (unknown origin) by HTRF assay
[2] = target: Mitogen-activated protein kinase kinase kinase 7, TAK1 kinase (Homo sapiens) (UniProt O43318); experiment: Inhibition of Tak1 (unknown origin) in presence of ATP
[3] = target: Mitogen-activated protein kinase kinase kinase 7, TAK1 kinase (Homo sapiens) (UniProt O43318); experiment: Inhibition of Tak1 (unknown origin) by competition binding assay

Sequence of Mitogen-activated protein kinase kinase kinase 7, TAK1 kinase (Homo sapiens) (O43318 whole entry, looked up): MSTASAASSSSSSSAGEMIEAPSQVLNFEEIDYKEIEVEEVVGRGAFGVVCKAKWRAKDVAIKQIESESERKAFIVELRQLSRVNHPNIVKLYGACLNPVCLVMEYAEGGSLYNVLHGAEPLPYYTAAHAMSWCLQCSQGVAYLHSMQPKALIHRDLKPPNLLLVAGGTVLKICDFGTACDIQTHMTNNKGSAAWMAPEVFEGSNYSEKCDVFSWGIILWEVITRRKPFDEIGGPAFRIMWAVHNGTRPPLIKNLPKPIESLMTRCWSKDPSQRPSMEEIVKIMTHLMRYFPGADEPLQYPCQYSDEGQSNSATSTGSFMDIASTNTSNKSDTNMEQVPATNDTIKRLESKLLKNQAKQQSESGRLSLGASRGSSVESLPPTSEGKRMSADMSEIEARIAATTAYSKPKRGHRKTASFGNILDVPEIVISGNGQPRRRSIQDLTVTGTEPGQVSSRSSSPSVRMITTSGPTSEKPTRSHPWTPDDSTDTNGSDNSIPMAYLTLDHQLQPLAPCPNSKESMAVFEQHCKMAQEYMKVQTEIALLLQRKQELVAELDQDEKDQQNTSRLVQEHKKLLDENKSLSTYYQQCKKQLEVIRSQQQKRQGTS
Sequence of Tyrosine-protein kinase Fyn (Homo sapiens) (P06241 whole entry, looked up): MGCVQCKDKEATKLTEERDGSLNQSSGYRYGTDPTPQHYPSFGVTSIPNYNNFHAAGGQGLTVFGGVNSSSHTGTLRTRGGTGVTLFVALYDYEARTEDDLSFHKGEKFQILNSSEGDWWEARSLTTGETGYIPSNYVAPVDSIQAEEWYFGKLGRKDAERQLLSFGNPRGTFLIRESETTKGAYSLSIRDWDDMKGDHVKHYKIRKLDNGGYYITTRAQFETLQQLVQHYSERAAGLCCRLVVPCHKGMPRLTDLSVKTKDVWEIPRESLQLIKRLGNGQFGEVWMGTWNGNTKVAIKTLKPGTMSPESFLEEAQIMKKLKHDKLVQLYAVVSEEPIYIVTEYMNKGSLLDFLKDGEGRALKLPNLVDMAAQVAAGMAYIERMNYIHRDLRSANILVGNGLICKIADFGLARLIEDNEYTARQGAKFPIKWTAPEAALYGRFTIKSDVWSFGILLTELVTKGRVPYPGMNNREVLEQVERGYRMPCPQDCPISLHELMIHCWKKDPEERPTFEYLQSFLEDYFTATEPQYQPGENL

- IC50 [1]: > 5.7 nM
- IC50 [2]: > 2 nM
- IC50 [3]: > 2 nM
Compound: C[C@H]1CC(=O)Nc2cc(C(=O)NCCC3CC3)ccc2N1C(=O)N1CC2CC2C1 (stereo partly drawn)
